Source: ChEMBL document CHEMBL4627273, “BET proteins: Investigating BRDT as a potential target for male contraception” (Bioorg Med Chem Lett, 2020)

Molecular target: Bromodomain testis-specific protein (Homo sapiens, UniProt Q58F21)
Test: Binding affinity to human partial length BRDT bromodomain 1 (N21 to E137 residues) expressed in bacterial expression system by BROMOscan assay

SMILES: Cc1sc2c(c1C)C(c1ccc(Cl)cc1)=N[C@@H](CC(=O)NCCCCNC(=O)COc1cccc3c1C(=O)N(C1CCC(=O)NC1=O)C3=O)c1nnc(C)n1-2 (stereo partly specified)
- Kd: 6 to 19 nM
